# What was measured:
# Assay type in all cases: physicochemical
# [1] = Effect of suppressing volatilization: retained ethanol by gas chromatography (Example C-2); settings: for Amount of Retained Ethanol: per 1 g of material
# Method: About 5 g of an ethanol-retaining material with CTS crystalline anhydrate, branched cyclodextrin, anhydrous trehalose, or dextrin, prepared freshly by the method described in Example C-1, was taken into a 20 ml volume of glass vials. The vials were placed under normal pressure and room temperature for the purpose of evaporating ethanol. The amount of retained ethanol in samples freshly prepared, or after two hours later, four hours later, eight hours later, or 24 hours later, was measured by dissolving each sample in about 10 ml of water, diluting it with water to give a volume of 100 ml in a glass measuring flask, and measuring the amount of ethanol dissolved in the resulting aqueous solution by a gas chromatography. In the case of a soluble starch as a sample, additional centrifuging was carried out after diluting up to 100 ml. The above gas chromatography was carried out using “GC-14B” (a gas liquid chromatography commercialized by Shimazu Corporation, Kyoto, Japan) equipped with “TC-5” (a capillary column sized 0.53 mm in diameter and 15 m in length, commercialized by GL Sciences Inc., Tokyo, Japan). The amount of retained ethanol per 1 g of each material is in Table 2.
# In this table, each value in the parentheses means a relative percentage to the ethanol amount (100%) just after its preparation.
# [2] = Adsorption of liquid ethanol or acetic acid on saccharide powder (Example C-1); settings: until mixture did not keep a powder form; for Amount of Adsorbed Acetic Acid: acetic acid adsorbed on 1 g of saccharide; for Amount of Adsorbed Ethanol: ethanol adsorbed on 1 g of saccharide
# From the text: CTS crystalline pentahydrate, prepared by the method described in Example B-3, CTS crystalline monohydrate, prepared by the method described in Example B-4, CTS crystalline anhydrate, prepared by the method described in Example B-5, or CTS amorphous anhydrate prepared by the method described in Example B-6, was used for preparation of aroma-retaining material. “ISOELEAT P™”, a branched cyclodextrin commercialized by Maruha corporation, Tokyo, Japan, anhydrous trehalose prepared by the method described in Japanese Patent Kokai No. 111,284/97, “PINEFIBRE™”, a dextrin commercialized by Matsutani Chemical Industries Co., Ltd., Tokyo, Japan, or soluble starch in a reagent grade commercialized by Katayama Chemical Industries, Co., Ltd., Tokyo, Japan, was dried in vacuo at 80° C. for 16 hours as control saccharides. […] The resulting mixture was weighed. The weight of ethanol or acetic acid was calculated by subtracting the pre-measured saccharide weight. The weight of ethanol or acetic acid adsorbed on 1 g of each saccharide was in Table 1.
# [3] = Adsorption and 10-day retention of lavender oil, citronellol or phenethyl alcohol on saccharides (Example C-4); settings: for Amount of the Adsorbed Substance: freshly prepared sample; for Relative Amount of the Retained Substance: preserved at 25° C. for 10 days vs freshly prepared
# From the text: The following example is a test to confirm the effect of CTS crystalline hydrate, CTS crystalline anhydrate, or CTS amorphous anhydrate on retaining, as an aromatic substance, lavender oil, citronellol, or phenethyl alcohol. CTS crystalline pentahydrate prepared by the method described in Example B-3, CTS crystalline anhydrate in Example B-5, and CTS amorphous anhydrate in Example B-6 were used as the test saccharides “ISOELEAT P®”, a branched cyclodextrin commercialized by Maruha Corporation, Tokyo, Japan, was used as a control.
# In the case of lavender oil, five parts by weight of each of the above saccharides were taken into a glass dish sized 90 mm in diameter and 20 mm in depth, admixed with one part by weight of lavender oil by stirring. Lavender oil was measured by the method described as follows; admixing 2 ml of diethyl ether with 1 g of each of the above samples freshly prepared or after preserved at 25° C. for 10 days; measuring the extracted lavender oil by gas chromatography using “GC-14B” (a gas chromatography commercialized by Shimazu corporation, Kyoto, Japan) equipped with “TC-Wax” (a capillary column sized 0.53 mm in diameter and 25 m in length commercialized by GL Sciences Inc., Tokyo, Japan.
# In the case of citronellol or phenethyl alcohol, five parts by weight of each of the above saccharides were taken into a glass dish sized 90 mm in diameter and 20 mm in depth, admixed with one part by weight of citronellol or phenethyl alcohol, and mixed by stirring. The adsorbed citronellol or phenethyl alcohol was measured by admixing 2 ml of diethyl ether with 1 g of each of the above sample freshly prepared or after preserved at 25° C. for 10 days, and measuring the extracted lavender oil by gas chromatography using “GC-14B” (a gas chromatography device commercialized by Shimazu corporation, Kyoto, Japan) equipped with “DB-5” (a capillary column sized 0.25 mm in diameter and 30 m in length commercialized by GL Sciences Inc., Tokyo, Japan).
# The amount of the retained aromatic substance in each sample was calculated using the following formula, and the results were shown in Table 4.
# Formula: Relative amount of the retained Substance (%)={(an amount of aromatic substance in a sample preserved for 10 days)/(an amount of aromatic substance in a freshly prepared sample)}×100
# [4] = 2 h later, normal pressure, room temperature
# [5] = 4 h later, normal pressure, room temperature
# [6] = 8 h later, normal pressure, room temperature
# [7] = 24 h later, normal pressure, room temperature
# [8] = citronellol, listed as Sample 2
# [9] = lavender oil, listed as Sample 2
# [10] = phenethyl alcohol, listed as Sample 2
Relative percentage to the ethanol amount just after preparation ([1]; 2 h later),Relative percentage to the ethanol amount just after preparation ([1]; 4 h later),Relative percentage to the ethanol amount just after preparation ([1]; 8 h later),Relative percentage to the ethanol amount just after preparation ([1]; 24 h later),Relative percentage to the ethanol amount just after preparation ([1]; freshly prepared),"Amount of Retained Ethanol [1, 4]","Amount of Retained Ethanol [1, 5]","Amount of Retained Ethanol [1, 6]","Amount of Retained Ethanol [1, 7]",Amount of Retained Ethanol ([1]; freshly prepared),Amount of Adsorbed Acetic Acid [2],Amount of Adsorbed Ethanol [2],SMILES,also measured
(51%),(8%),(4%),(2%),(100%),103 mg,17 mg,8 mg,5 mg,203 mg,0.18 g,0.25 g,"OC[C@H]1O[C@H](O[C@H]2O[C@H](CO)[C@@H](O)[C@H](O)[C@H]2O)[C@H](O)[C@@H](O)[C@@H]1O [Anhydrous trehalose, reference compound]",–
(101%),(87%),(3%),(2%),(100%),335 mg,290 mg,10 mg,5 mg,333 mg,0.47 g,0.50 g,OCC1OC2OCC3O[C@H](O[C@H]4C(O)C(CO)OC(OCC5O[C@H](O[C@@H](C1O)C2O)C(O)C(O)[C@@H]5O)C4O)C(O)C(O)[C@@H]3O (some centres unmarked) [CTS crystalline anhydrate],"Adsorbing capability relative to branched cyclodextrin ([3]; citronellol): about 1.2 fold; Amount of the Adsorbed Substance ([3]; citronellol): 195 mg/g saccharide; Amount of the Adsorbed Substance [3, 8]: 195 mg/g saccharide; Relative Amount of the Retained Substance [3, 8]: 42%; Adsorbing capacity relative to branched cyclodextrin ([3]; lavender oil): about 1.3 fold; Amount of the Adsorbed Substance ([3]; lavender oil): 190 mg/g saccharide; Amount of the Adsorbed Substance [3, 9]: 190 mg/g saccharide; Relative Amount of the Retained Substance [3, 9]: 12%; Amount of the Adsorbed Substance ([3]; phenethyl alcohol): 190 mg/g saccharide; Amount of the Adsorbed Substance [3, 10]: 190 mg/g saccharide; Relative Amount of the Retained Substance [3, 10]: 16%"
